Results published in patent US9987276B2 (Celgene CAR LLC, priority 2008, dated 2018).
Like-named read-outs stand apart in the source and are kept apart here.

Columns and labels:
[1] = test system: TI-2 independent B cell activation; test: In vivo thymus-independent (TI-2) B cell activation; conditions: C57/B6 mice, 100 mg/kg daily day 0 through 5, TNP-Ficoll, serum day 6
[2] = target: T1, BTK (Homo sapiens (Human), UniProt Q06187); test: Mass spectrometry for BTK (intact protein); format: binding; conditions: 1 hr, 10× fold excess of compound
T1 sequence (Q06187 whole entry): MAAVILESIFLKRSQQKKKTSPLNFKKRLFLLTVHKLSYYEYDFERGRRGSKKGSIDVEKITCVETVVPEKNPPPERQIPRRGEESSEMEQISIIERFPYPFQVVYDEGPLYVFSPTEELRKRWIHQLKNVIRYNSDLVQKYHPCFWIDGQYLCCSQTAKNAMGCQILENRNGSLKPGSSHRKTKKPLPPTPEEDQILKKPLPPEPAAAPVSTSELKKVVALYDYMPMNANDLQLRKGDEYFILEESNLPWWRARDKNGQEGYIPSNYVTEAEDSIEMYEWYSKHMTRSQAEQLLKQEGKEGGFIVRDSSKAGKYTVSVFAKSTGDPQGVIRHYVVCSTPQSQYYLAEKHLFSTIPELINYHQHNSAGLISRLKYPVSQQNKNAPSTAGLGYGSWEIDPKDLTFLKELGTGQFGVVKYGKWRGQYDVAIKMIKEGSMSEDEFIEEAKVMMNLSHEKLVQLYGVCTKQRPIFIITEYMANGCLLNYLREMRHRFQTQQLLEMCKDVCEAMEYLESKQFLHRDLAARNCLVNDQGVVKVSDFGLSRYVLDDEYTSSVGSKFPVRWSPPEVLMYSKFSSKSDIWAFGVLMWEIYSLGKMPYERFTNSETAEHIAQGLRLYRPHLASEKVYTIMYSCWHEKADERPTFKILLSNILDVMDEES
Description: Intact BTK was incubated for 1 hr at a 10× fold excess of I-7 to protein. Aliquots (2 μl) of the samples were diluted with 10 μl of 0.1% TFA prior to micro C4 ZipTipping directly onto the MALDI target using Sinapinic acid as the desorption matrix (10 mg/ml in 0.1% TFA:Acetonitrile 20:80).

[3] = target: EGFR-WT (Homo sapiens (Human), UniProt P00533); test: Omnia assay for potency assessment against EGFR (WT)
Chain of EGFR-WT (P00533 668-1210): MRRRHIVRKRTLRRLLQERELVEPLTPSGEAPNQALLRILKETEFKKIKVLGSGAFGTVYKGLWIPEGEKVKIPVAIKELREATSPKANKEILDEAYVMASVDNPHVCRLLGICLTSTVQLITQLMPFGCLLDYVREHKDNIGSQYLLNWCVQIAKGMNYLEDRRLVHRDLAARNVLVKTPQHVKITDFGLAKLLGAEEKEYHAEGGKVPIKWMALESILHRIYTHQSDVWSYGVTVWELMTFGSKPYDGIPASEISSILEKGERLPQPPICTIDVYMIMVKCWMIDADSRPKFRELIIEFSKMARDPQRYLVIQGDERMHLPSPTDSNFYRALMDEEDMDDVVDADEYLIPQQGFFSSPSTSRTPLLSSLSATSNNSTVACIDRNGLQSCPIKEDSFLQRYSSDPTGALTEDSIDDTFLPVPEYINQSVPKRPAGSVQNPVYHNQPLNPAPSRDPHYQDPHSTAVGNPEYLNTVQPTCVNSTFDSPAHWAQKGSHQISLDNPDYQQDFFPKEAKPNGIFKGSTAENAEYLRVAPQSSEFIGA

[4] = target: T1, BTK; test: BTK occupancy from in vitro samples by ELISA (Ramos cells); format: cell-based; conditions: ELISA with probe I-215
Description: (§1) In order to determine the amount of free BTK in cell or tissue lysates, an ELISA protocol was employed that utilizes a biotinylated probe compound that binds only to free, unoccupied BTK. The conjugated biotin is captured on a streptavidin-coated ELISA plate and detected with a mouse anti-BTK antibody (Becton Dickinson, Franklin Lakes, N.J., USA) and a secondary goat anti-mouse HRP antibody (Zymed, South San Francisco, Calif., USA).
All samples were prepared with equal concentrations of Biorad lysis buffer (Hercules, Calif., USA), 0.5% bovine serum albumin in PBS with 0.05% Tween-20 to give a final concentration of 1 μM I-215. Samples were incubated in a mixing plate for 1 hr at room temperature while shaking to allow probe compound I-215 to bind to free BTK. After incubation with I-215, samples were added to a washed, streptavidin-coated ELISA plate (Pierce, Rockford, Ill., USA) and incubated for 1 hr at room temperature while shaking. The plate was then washed with PBS containing 0.05% Tween-20 using an automatic plate washer. Anti-BTK antibody was prepared at 1:1000 dilution in 0.5% BSA in PBS (0.05% Tween-20) and added to the ELISA plate. The plate was incubated for 1 hr at room temperature while shaking. The plate was washed as described above and the secondary HRP antibody was prepared at 1:5000 dilution in 0.5% BSA in PBS (0.05% Tween-20). The plate was incubated and washed as described above. TMB was added to the plate, and OD650 was monitored until reaching 1 OD unit. The reaction was then stopped with addition of H2SO4. The plate was analyzed using Gen 5 software, and a 4 Parameter Logistic curve was employed to quantitate samples. Recombinant BTK (Invitrogen, Carlsbad, Calif., USA) was used for the standard curve.
A concentration designated as “A” is greater than 1 nM; a concentration designated as “B” is greater than 10 nM; and a concentration designated as “C” is greater than 50 nM.

[5] = target: ITK (Homo sapiens (Human), UniProt Q08881); test: Omnia assay for potency assessment against active forms of ITK kinase; format: biochemical; conditions: [ITK]=10 nM, [ATP]=25, [Y6-Sox]=10 μM; read-out: ITK Inhibition
Chain of ITK (Q08881 whole entry): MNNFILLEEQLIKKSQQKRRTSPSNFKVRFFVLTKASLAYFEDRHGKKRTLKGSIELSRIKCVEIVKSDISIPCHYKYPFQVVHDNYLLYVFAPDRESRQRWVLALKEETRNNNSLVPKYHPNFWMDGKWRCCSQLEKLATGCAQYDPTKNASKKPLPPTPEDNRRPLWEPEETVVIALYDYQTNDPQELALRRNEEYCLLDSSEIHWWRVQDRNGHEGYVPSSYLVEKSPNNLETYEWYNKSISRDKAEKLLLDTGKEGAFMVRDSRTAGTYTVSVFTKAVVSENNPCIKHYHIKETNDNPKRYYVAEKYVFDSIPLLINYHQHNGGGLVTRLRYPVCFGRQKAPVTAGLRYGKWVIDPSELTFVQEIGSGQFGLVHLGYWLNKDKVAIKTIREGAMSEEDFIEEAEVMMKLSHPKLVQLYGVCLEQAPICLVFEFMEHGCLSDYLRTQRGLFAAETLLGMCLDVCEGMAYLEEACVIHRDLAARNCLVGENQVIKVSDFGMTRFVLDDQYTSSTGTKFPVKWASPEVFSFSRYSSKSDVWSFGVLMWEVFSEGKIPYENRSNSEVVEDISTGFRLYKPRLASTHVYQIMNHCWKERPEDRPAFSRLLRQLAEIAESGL
Description: [ITK]=10 nM, [ATP]=25 [Y6-Sox]=10 μM (ATP KMapp=33 μM).

[6] = target: T1, BTK; test: Human primary B cell covalent probe occupancy in vitro; format: cell-based; conditions: human primary B cells, 1 h at 37° C., probe I-215 ELISA
Description: as §1
(§2) All samples were prepared with equal concentrations of Biorad lysis buffer (Hercules, Calif., USA), 0.5% bovine serum albumin in PBS with 0.05% Tween-20 to give a final concentration of 1 μM I-215. Samples were incubated in a mixing plate for 1 hr at room temperature while shaking to allow probe compound I-215 to bind to free BTK. After incubation with I-215, samples were added to a washed, streptavidin-coated ELISA plate (Pierce, Rockford, Ill., USA) and incubated for 1 hr at room temperature while shaking. […] TMB was added to the plate, and OD650 was monitored until reaching 1 OD unit. […] The plate was analyzed using Gen 5 software, and a 4 Parameter Logistic curve was employed to quantitate samples. […]
Human primary B cells were isolated as described in Example 256, then resuspended in RPMI media (10% serum). The compound to be analyzed was added at a 1:1000 dilution to media. […] The supernatant was analyzed as described in Example 283 using I-215.

[7] = target: ERBB4 (HER4) (Homo sapiens (Human), UniProt Q15303); test: Z'-LYTE kinase inhibition, ErbB4; format: biochemical
Description: (§3) Compounds of the present invention were assayed as inhibitors of one or more of ErbB1, ErbB2, and/or ErbB4 in a manner substantially similar to the method described by Invitrogen Corp (Invitrogen Corporation, 1600 Faraday Avenue, Carlsbad, Calif., CA; http://www.invitrogen.com/downloads/Z-LYTE_Brochure_1205.pdf) using the Z'-LYTE™ biochemical assay procedure or similar biochemical assay. The Z'-LYTE™ biochemical assay employs a fluorescence-based, coupled-enzyme format and is based on the differential sensitivity of phosphorylated and non-phosphorylated peptides to proteolytic cleavage.

[8] = target: EGFR-T790M/L858R (Homo sapiens (Human), UniProt P00533, L858R/T790M); test: Omnia assay for potency assessment against EGFR (T790M/L858R); conditions: read-out: EGFR (T790M/L858R); EGFR mutant T790M/L858R
Chain of EGFR-T790M/L858R (P00533 25-1210 T790M/L858R): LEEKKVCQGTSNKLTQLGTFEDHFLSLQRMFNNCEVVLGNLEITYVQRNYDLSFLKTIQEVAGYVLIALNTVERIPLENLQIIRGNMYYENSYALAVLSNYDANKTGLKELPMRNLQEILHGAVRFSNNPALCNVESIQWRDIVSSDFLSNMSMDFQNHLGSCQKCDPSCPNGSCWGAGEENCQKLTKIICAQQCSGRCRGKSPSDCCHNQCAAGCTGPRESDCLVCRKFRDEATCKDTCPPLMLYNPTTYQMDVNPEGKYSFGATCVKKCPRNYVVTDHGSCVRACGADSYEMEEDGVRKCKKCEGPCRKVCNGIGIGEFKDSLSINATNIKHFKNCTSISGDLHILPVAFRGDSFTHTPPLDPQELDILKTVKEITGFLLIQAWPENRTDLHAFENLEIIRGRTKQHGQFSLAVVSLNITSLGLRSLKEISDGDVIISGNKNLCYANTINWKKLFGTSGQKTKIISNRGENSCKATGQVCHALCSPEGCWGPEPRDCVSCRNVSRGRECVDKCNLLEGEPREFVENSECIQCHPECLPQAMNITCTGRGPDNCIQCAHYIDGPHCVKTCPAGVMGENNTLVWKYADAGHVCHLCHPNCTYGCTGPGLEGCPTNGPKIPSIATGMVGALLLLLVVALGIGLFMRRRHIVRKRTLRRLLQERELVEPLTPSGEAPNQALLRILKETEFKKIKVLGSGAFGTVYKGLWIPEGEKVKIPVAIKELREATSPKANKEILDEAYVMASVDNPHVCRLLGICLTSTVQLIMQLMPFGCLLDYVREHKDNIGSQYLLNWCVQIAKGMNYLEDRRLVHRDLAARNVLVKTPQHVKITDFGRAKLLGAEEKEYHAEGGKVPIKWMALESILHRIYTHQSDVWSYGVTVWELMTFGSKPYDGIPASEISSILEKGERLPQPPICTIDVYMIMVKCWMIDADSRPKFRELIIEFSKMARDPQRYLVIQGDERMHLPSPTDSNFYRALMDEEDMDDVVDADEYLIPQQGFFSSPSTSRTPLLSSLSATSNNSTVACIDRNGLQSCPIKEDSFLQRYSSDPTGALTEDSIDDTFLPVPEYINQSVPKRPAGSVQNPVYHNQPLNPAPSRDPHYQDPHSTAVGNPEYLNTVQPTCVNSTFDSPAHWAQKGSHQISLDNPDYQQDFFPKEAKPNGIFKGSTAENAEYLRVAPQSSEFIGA

[9] = target: EGFR T790M (Homo sapiens (Human), UniProt P00533, T790M); test: EGFR mutant T790M inhibition assay; format: biochemical
Chain of EGFR T790M (P00533 25-1210 T790M): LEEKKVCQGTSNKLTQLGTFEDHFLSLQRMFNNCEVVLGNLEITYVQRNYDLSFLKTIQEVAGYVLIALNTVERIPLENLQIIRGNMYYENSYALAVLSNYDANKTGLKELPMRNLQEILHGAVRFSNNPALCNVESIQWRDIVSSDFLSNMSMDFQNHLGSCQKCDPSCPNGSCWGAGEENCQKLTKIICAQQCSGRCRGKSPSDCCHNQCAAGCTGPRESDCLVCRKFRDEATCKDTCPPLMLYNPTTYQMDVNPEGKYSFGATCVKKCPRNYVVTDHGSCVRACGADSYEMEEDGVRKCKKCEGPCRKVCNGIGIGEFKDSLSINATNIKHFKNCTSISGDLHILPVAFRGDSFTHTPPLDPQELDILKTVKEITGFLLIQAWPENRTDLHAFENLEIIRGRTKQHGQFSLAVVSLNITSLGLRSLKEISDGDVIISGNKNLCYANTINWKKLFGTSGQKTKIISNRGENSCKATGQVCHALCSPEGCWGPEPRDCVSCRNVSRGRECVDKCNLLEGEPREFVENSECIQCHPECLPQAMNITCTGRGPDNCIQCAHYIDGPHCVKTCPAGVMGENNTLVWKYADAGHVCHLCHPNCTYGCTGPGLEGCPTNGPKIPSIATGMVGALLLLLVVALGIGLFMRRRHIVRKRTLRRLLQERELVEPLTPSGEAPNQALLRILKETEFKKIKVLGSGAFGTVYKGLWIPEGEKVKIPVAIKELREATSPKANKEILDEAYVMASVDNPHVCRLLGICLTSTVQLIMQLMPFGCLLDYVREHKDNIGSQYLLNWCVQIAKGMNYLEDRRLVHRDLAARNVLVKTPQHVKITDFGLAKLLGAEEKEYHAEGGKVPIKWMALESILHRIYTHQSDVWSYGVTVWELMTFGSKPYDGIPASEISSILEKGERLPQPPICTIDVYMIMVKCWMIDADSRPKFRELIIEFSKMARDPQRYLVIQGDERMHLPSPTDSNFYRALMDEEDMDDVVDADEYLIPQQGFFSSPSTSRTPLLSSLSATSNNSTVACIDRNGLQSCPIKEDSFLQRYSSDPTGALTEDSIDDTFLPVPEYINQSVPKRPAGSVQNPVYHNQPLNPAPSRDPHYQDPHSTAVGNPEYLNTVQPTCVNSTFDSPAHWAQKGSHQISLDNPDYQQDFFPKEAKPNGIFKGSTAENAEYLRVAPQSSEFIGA
Description: The Omnia Assay Protocol for potency assessment against EGFR is performed as described in Example 251 above except that the EGFR-WT- and EGFR T790M/L858R-modified optimized reagent conditions are: […]

[10] = target: T1, BTK; test: Omnia assay for potency assessment against BTK; format: biochemical; conditions: for IC50: [BTK]=5 nM, Omnia assay, read-out: BTK Inhibition (IC50)
Description: The modified BTK-optimized reagent conditions for the above protocol are:
[BTK]=5 nM, [ATP]=[…], [Y5-Sox]=[…] (ATP KMapp˜[…]).

[11] = target: ERBB1 (Homo sapiens (Human), UniProt P00533); test: Z'-LYTE kinase inhibition, ErbB1; format: biochemical
Description: as §3

[12] = test system: Human naïve B cells; test: Human primary B cell proliferation assay; format: cell-based
Description: Human naïve B cells were purified from 100 mL whole blood using a MACS purification kit designed to isolate CD19+, IgD+ cells by negative selection. Purified naïve B cells were resuspended in RPMI complete and stimulated with 5 μg/ml α-IgM for 72 hours. ^3H-Thymidine was included in the culture media for the final 16 h, cells were harvested and ^3H incorporation measured. Inhibition of B cell proliferation correlates with inhibition of BTK substrate phosphorylation after α-IgM stimulation.

[13] = target: BTK (Canis lupus familiaris, UniProt A0A8I3P3Z9); test: Dog primary B cell covalent probe occupancy in vitro; format: cell-based; conditions: canine PBMCs, one hour at 37° C., probe I-215 ELISA
Chain of BTK (Canis lupus familiaris, UniProt A0A8I3P3Z9) (A0A8I3P3Z9 1-664): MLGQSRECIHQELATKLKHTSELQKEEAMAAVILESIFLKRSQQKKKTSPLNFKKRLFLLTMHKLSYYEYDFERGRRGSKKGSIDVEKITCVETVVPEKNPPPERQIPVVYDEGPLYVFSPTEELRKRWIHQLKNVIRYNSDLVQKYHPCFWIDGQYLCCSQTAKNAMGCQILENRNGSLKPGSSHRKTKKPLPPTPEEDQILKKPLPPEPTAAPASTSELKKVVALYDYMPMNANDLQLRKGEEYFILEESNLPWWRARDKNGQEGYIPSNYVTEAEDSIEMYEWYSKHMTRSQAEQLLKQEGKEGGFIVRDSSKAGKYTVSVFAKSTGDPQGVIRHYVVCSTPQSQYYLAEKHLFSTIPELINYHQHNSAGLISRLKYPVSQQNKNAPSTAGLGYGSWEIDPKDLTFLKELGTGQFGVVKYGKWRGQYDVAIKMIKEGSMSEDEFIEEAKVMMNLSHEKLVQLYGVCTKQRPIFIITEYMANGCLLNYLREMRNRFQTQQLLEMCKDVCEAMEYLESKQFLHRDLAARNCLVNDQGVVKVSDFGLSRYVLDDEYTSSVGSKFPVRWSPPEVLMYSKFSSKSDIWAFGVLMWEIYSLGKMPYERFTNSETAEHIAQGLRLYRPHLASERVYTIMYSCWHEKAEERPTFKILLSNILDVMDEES
Description: as §1, §2
Canine whole blood (30 mL) was diluted to 50 mL total with 1×PBS and layered on top of Histopaque-1077 (Sigma Aldrich). […] The supernatant was analyzed as described in Example 283 using I-215. […]

[14] = PG-PS arthritis model; format: in vivo; conditions: female Lewis rats, oral gavage daily through day 22
Description: On day 0, female Lewis rats received an intraperitoneal (IP) bolus of peptidoglycan-polysaccharide (PG-PS) in an amount of 15 μg/g rat body weight. Baseline control rats received an IP bolus of PBS. The vehicle and treatment groups were dosed via oral gavage just prior to PG-PS administration. Treatment with vehicle and compound continued each day through day 22. Maximal lateral ankle width measurements of both rear limbs were collected with a caliper throughout the study. On day 23, study was terminated and the final change in ankle swelling was calculated and compared to vehicle controls.

[15] = target: T1, BTK; test: BTK Ramos cellular assay (PLCγ2 phosphorylation); format: cell-based; conditions: Ramos cells, 1 hour compound, anti-IgM stimulation, p-PLCγ2; read-out: BTK Inhibition (IC50), BTK Ramos cellular inhibition

Row | SMILES | % Inhibition IgG3 (1:100) [1] [%] | % Inhibition IgM (1:1600) [1] [%] | covalent modification of BTK (mass spectrometry) [2] | IC50 ([3]; read-out: EGFR (wild type inhibition), EGFR wild type) [µM] | >50% occupancy (concentration at which >50% of BTK is occupied) [4] | >90% occupancy (concentration at which >90% of BTK is occupied) [4] | IC50 [5] [µM] | concentration at which at least 50% of BTK is occupied [6] | IC50 [7] [µM] | IC50 [8] [µM] | IC50 [3] [µM] | IC50 [9] [µM] | IC50 [10] [µM] | IC50 [11] [µM] | biochemical activity against BTK [10] | activity in the naïve B cell proliferation assay [12] | concentration at which at least 50% of BTK is occupied [13] | % inhibition ankle swelling [14] [%] | IC50 [15] [µM]
1 | C=CC(=O)Nc1cccc(Nc2nc(Nc3ccc(OCCOC)cc3)ncc2F)c1 [Compound I-182, N-(3-(5-fluoro-2-(4-(2-methoxyethoxy)phenylamino)pyrimidin-4-ylamino)phenyl)acrylamide] | 40 | 25 | completely modify | < 0.01 | A (greater than 1 nM) | C (greater than 50 nM) | 0.01 to 0.1 | greater than 10 nM |  |  |  |  |  |  |  |  |  |  | 
2 | C=CC(=O)Nc1ccc(C)c(Nc2nccc(-c3cccnc3)n2)c1 [Compound I-56, N-(4-methyl-3-(4-(pyridin-3-yl)pyrimidin-2-ylamino)phenyl) acrylamide] |  |  |  |  |  |  | 0.1 to 1 |  | 2.17 | < 0.01 | 0.01 to 0.1 | 0.01 to 0.1 | 0.1 to 1 | 2.23 |  |  |  |  | 
3 | CCC(=O)Nc1cccc(Nc2nc(Nc3ccccc3)ncc2C)c1 [I^R-7, N-(3-(5-methyl-2-(phenylamino)pyrimidin-4-ylamino)phenyl) propionamide] |  |  |  |  |  |  |  |  |  | 1 to 10 | 1 to 10 |  | 0.1 to 1 |  | biochemically inactive | not active |  |  | 
4 | C=CC(=O)Nc1cccc(Nc2nc(Nc3ccc(OCCOC)c(F)c3)ncc2F)c1 [Compound I-96, N-(3-(2-(3-fluoro-4-(2-methoxyethoxy)phenylamino)-5-fluoropyrimidin-4-ylamino)phenyl)acrylamide] | 37.2 | 43 | completely modify |  | A (greater than 1 nM) | B (greater than 10 nM) | 0.01 to 0.1 | greater than 10 nM |  | < 0.01 | 0.01 to 0.1 | < 0.01 | < 0.01 |  |  |  | greater than 10 nM | 82.8 | < 0.01
